Where a name gives a salt, the structure may show the parent alone.
Key:
[1] = Clinical trial of oral and intravenous-then-oral delafloxacin regimens: adverse event reporting, incidence of diarrhea; type: in vivo, human; settings: for Abdominal Pain, subjects reporting, number (%) / Diarrhea, subjects reporting, number (%) / Gastrointestinal disorders, subjects reporting, number (%) / Nausea, subjects reporting, number (%): n = 20, safety population; for Percentage of subjects who reported diarrhea: oral capsules
[2] = Phase 1 single-dose crossover study: treatment-emergent adverse events; type: in vivo, human
Procedure: The pharmacokinetics and relative bioavailabilities of a 300 mg delafloxacin intravenous dosage form according to Example 1 and a 450 mg dose of oral delafloxacin according to Example 4 were measured in a Phase 1, single-dose, open-label, randomized, 2-period, 2-sequence crossover study. 56 healthy subjects received a single 450-mg dose of oral delafloxacin and a single 300-mg delafloxacin IV infusion in 1 of 2 treatment sequences. Plasma samples were analyzed for delafloxacin concentrations with a validated LC-MS/MS method. Pharmacokinetic parameters were calculated using noncompartmental methods.
16 treatment-emergent AEs (TEAE) were reported, the most frequent of which were headache (5.4%), followed by diarrhea (3.6%). 2 TEAEs were considered moderate in severity, but the remainders were considered mild, and none led to study discontinuation.

[3] = Regimen C: 300 mg IV then 400 mg oral capsules
[4] = Regimens A/B: 400-mg oral capsules (4 × 100-mg)
[5] = 56 healthy subjects, single 450-mg oral dose and single 300-mg IV infusion

Compound	Abdominal Pain, subjects reporting, number (%) [1, 3]	Diarrhea, subjects reporting, number (%) [1, 3]	Gastrointestinal disorders, subjects reporting, number (%) [1, 3]	Nausea, subjects reporting, number (%) [1, 3]	Abdominal Pain, subjects reporting, number (%) [1, 4]	Diarrhea, subjects reporting, number (%) [1, 4]	Gastrointestinal disorders, subjects reporting, number (%) [1, 4]	Nausea, subjects reporting, number (%) [1, 4]	Side effects reported ([1]; group with intravenous administration followed by oral treatment)	Tolerability ([1]; intravenous formulation (300 mg, 3 days) followed by oral formulation (400 mg BID, 4 days))	Side effects as compared to all-oral formulations ([1]; intravenous formulation followed by oral formulation)	Percentage of subjects who reported diarrhea [1] [%]	Diarrhea TEAE frequency [2, 5] [%]	Headache TEAE frequency [2, 5] [%]	Number of treatment-emergent AEs (TEAE) reported [2, 5]	TEAEs that led to study discontinuation ([2]; in vivo)	Number of TEAEs considered moderate in severity ([2]; remainders considered mild)
CNC[C@H](O)[C@@H](O)[C@H](O)[C@H](O)CO.Nc1nc(-n2cc(C(=O)O)c(=O)c3cc(F)c(N4CC(O)C4)c(Cl)c32)c(F)cc1F [Meglumine Salt, D-glucitol, 1-deoxy-1-(methylamino)-, 1-(6-amino-3,5-difluoro-2-pyridinyl)-8-chloro-6-fluoro-1,4-dihydro-7-(3-hydroxy-1-azetidinyl)-4-oxo-3-quinolinecarboxylate]	0	0	0	0	0	3 (15.0%)	5 (25.0%)	0	No side effect	well tolerated	reduced side effects	15.0	–	–	–	–	–
Nc1nc(-n2cc(C(=O)O)c(=O)c3cc(F)c(N4CC(O)C4)c(Cl)c32)c(F)cc1F [Potassium Salt]	–	–	–	–	2 (10.0%)	3 (15.0%)	3 (15.0%)	1 (5.0%)	–	–	–	15.0	–	–	–	–	–
Nc1nc(-n2cc(C(=O)O)c(=O)c3cc(F)c(N4CC(O)C4)c(Cl)c32)c(F)cc1F [delafloxacin, 1-(6-amino-3,5-difluoro-2-pyridinyl)-8-chloro-6-fluoro-1,4-dihydro-7-(3-hydroxy-1-azetidinyl)-4-oxo-3-quinolinecarboxylic acid]	–	–	–	–	–	–	–	–	–	–	–	–	3.6	5.4	16	none	2

— patent US20170368055A1, “METHODS FOR TREATING INFECTIONS” (Melinta Therapeutics, Inc., priority 2014, published 2017)
